Experimental data as given in PMC8509398, “Proteolytic Cleavage of Bioactive Peptides and Protease-Activated Receptors in Acute and Post-Colitis” (International Journal of Molecular Sciences, 2021).
Residues, ends and D or L forms follow the SMILES beside them. *: point of attachment. AMC = Cc1cc(=O)oc2cc(N*)ccc12; Boc = CC(C)(C)OC(=O)*

Tests used:
[1] = target: thrombin (Homo sapiens, UniProt P00734); assay: Michaelis-Menten constant of fluorogenic substrates with thrombin; format: biochemical; set-up: thrombin (Sigma-Aldrich); purchased Sigma-Aldrich; conditions: thrombin 0.19 nM, range of substrate concentrations, 37 °C, fluorescence measured kinetically 20 min, Michaelis-Menten fit, experiment repeated twice
Procedure: (§1) Preheated substrate was added to colonic lysate to start the reaction. Fluorescence was measured for 20 min at 37 °C on a Tecan Infinite F200 pro microtiter plate reader. A calibration curve with AMC (Sigma-Aldrich, Saint Louis, MO, USA) was used to determine activities in units per liter, where a unit is defined as the amount of enzyme that catalyzes the conversion of one micromole of the substrate per minute in the specific experimental conditions described. Activities were normalized to protein concentration determined with Bradford to obtain activities in units per gram protein. Km for trypsin-1, trypsin-2, trypsin-3 and thrombin with Boc-QAR-AMC and Tos-GPR-AMC were also determined (Figure S5).
(§2) Figure S 5: Michaelis-Menten constant (Km) for (a) trypsin-1, (b) trypsin-2, (c) trypsin-3 and (d) thrombin with Boc-QAR-AMC and Tos -GPR-AMC. The Km was determined with Boc -QAR-AMC and Tos -GPR-AMC by adding trypsin-1 (0.015 nM), trypsin -2 (0.015 nM), trypsin -3 (0.015 nM) or thrombin (0.19 nM) to a range of substrate concentrations at 37° C. The fluorescence was measured kinetically for 20 min at 37° C on a Tecan F200 multi-plate reader. The results in RFU/min were recalculated by dividing them by the slope of a calibration curve with AMC (0.78 – 10 µM) to obtain results in µmol/L/min. […]

[2] = target: T1, trypsin-3 (Homo sapiens, UniProt P35030); assay: Michaelis-Menten constant of fluorogenic substrates with trypsin-3; format: biochemical; set-up: made in house; conditions: trypsin-3 0.015 nM, range of substrate concentrations, 37 °C, fluorescence measured kinetically 20 min, Michaelis-Menten fit, experiment repeated twice
T1 sequence (P35030 1-304): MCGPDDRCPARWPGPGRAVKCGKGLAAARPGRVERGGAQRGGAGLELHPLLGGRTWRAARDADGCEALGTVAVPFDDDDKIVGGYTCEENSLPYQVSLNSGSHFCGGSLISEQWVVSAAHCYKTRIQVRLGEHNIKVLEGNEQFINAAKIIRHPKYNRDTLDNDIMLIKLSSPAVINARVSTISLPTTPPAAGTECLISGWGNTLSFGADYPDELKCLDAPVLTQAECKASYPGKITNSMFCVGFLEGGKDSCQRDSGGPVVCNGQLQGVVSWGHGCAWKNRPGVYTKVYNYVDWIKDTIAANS
Procedure: as §1, §2

[3] = target: pancreatic elastase I (Sus scrofa, UniProt P00772); assay: Cleavage of peptides by purified pancreatic elastase, MALDI-TOF/TOF; conditions: 25 nM protease, 10 µM peptide, 37 °C, time points 2, 5, 10, 30 min
Chain of pancreatic elastase I (P00772 27-266): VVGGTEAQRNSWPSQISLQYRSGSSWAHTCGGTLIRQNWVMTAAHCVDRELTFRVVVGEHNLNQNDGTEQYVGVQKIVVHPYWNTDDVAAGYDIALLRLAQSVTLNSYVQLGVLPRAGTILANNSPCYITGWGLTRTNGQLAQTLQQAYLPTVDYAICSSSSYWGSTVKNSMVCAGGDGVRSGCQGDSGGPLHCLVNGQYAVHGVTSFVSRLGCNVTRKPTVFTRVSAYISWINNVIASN
Text: Trypsin-like proteases included in the experiments are trypsin-1, -2 and -3, tryptase (Enzo LifeSciences), thrombin (Sigma-Aldrich) and cathepsin G (Sigma-Aldrich). Trypsin-1, -2 and -3 were produced as described by Koistinen et al. and Wu et al.. Two elastase-like enzymes, neutrophil elastase (Enzo LifeSciences, Farmingdale, NY, USA) and pancreatic elastase I (Sigma-Aldrich) were included as well. All enzymes were from human origin except for pancreatic elastase from porcine pancreas.
Reaction mixtures with purified enzymes were compiled in an identical way. […] Substance P was added as the standard peptide except for the reaction mixtures with substance P or bradykinin as the peptide of interest, where angiotensin II (Bachem) was added.
The TFA mixtures were thawed on ice and desalted using C18 zip-tips (Merck Millipore®, Burlington, MA, USA) with a capacity of 5 µg protein. Retained peptide fragments were eluted directly on the MALDI target plate. Next, 0.5 µL of a 2.5 mg/mL α-cyano-4-hydroxycinnamic acid (Sigma-Aldrich) matrix solution (in 70% acetonitrile, 0.1% TFA) was spotted on top of the sample. A 6-Peptide mixture Kit (AB Sciex, Framingham, MA, USA) containing bradykinin (2–9), angiotensin I, glu1-fibrinopeptide, ACTH (1–17), ACTH (18–39) and ACTH (7–38) was diluted with matrix and spotted on the plate as well.
MS and MS/MS data for peptide fragment identification were obtained with a MALDI-TOF/TOF instrument (4800 MALDI TOF/TOF™, Applied Biosystems, Waltham, MA, USA) and instrument parameters were set using 4000 Series Explorer™ software. MS spectra were recorded in positive reflector mode in a mass range from 500 to 4000 Da and laser intensity of 4500–4800 Hz. The spectra were calibrated using the calibration mixture mentioned above to a mass tolerance of 0.1 Da. MS/MS spectra were recorded with high-energy collision-induced dissociation and the laser intensity was increased by 10%.
Identified fragments were confirmed using the MS/MS spectra and mMass 5.5.0 by Martin Strohalm. The relative intensities of the fragments were calculated as the ratio of the intensity of the peak of interest to the intensity of the peak of the standard peptide.

[4] = tested on: T-cell transfer colitis mouse model; conditions: treated mice; cited from earlier work
[5] = substrate: Cc1cc(=O)oc2cc(NC(=O)[C@H](CCCNC(=N)N)NC(=O)[C@H](C)NC(=O)[C@H](CCC(N)=O)NC(=O)OC(C)(C)C)ccc12; assay: Michaelis-Menten constant of fluorogenic substrates with trypsin-2; format: biochemical, human; conditions: other: trypsin-2 0.015 nM, range of substrate concentrations, 37 °C, fluorescence measured kinetically 20 min, Michaelis-Menten fit, experiment repeated twice
Procedure: as §1, §2

## Cc1cc(=O)oc2cc(NC(=O)[C@H](CCCNC(=N)N)NC(=O)[C@H](C)NC(=O)[C@H](CCC(N)=O)NC(=O)OC(C)(C)C)ccc12 [Boc-QAR-AMC] (Boc-Gln-Ala-Arg-{AMC})
[1]
  Km: 2510 ± 285 µM
[2]
  Km: 4.6 ± 0.3 µM

## CC(C)C[C@H](NC(=O)[C@H](Cc1ccccc1)NC(=O)CNC(=O)CNC(=O)[C@@H](N)Cc1ccc(O)cc1)C(=O)O [L-enkephalin, Leu-enkephalin]
[3]
  Incubation time at which the first cleavage or decrease of the full-length peptide was observed, pancreatic elastase: 30 min

## CSCC[C@H](NC(=O)[C@H](Cc1ccccc1)NC(=O)CNC(=O)CNC(=O)[C@@H](N)Cc1ccc(O)cc1)C(=O)O [M-enkephalin, Met-enkephalin]
[3]
  Incubation time at which the first cleavage or decrease of the full-length peptide was observed, pancreatic elastase: 30 min

## CC(=O)Nc1ccc(OP(=O)(Oc2ccc(NC(C)=O)cc2)C(Cc2ccc(N=C(N)N)cc2)NC(=O)OCc2ccccc2)cc1.Cl (stereo not shown) [UAMC-00050]
[4]
  Effect on intestinal inflammation and permeability: ameliorated intestinal inflammation and permeability
  Effect on mRNA expression of PAR4: decreased the mRNA expression of PAR4

B1: trypsin-2 (Homo sapiens) (protein)
chain: IVGGYICEENSVPYQVSLNSGYHFCGGSLISEQWVVSAGHCYKSRIQVRLGEHNIEVLEGNEQFINAAKIIRHPKYNSRTLDNDILLIKLSSPAVINSRVSAISLPTAPPAAGTESLISGWGNTLSSGADYPDELQCLDAPVLSQAECEASYPGKITNNMFCVGFLEGGKDSCQGDSGGPVVSNGELQGIVSWGYGCAQKNRPGVYTKVYNYVDWIKDTIAANS
notes: made in house
[5]
  Km: 11.8 ± 0.1 µM
